Test results published in patent US20060178307A1, “Modulation of NMDA receptor currents via orexin receptor and/or CRF receptor” (priority 2005, published 2006).
“Also recorded” adds a separate entry of the source. Where no end group is shown, it is not given here.

Assays:
10% ethanol consumption = test: Voluntary ethanol consumption, limited-access two-bottle choice, icv infusion; type: in vivo, Long Evans rats; conditions: 5 μg ICV, n=14
Method: Agents in these in vivo studies were administered to either the lateral ventricle (icv) or ventral tegmental area (VTA) in rats by cannulae, which were implanted as follows. One week after the rats achieved baseline drinking and lever pressing levels in the 2-bottle choice and ethanol self-administration paradigms described below, they were anesthetized with 75 mg/kg pentobarbital sodium and placed in a stereotaxic frame. The head was shaved and scrubbed with an antiseptic solution of betadine/2% H2O2, followed by 2.5% topical xylocalne jelly. The skull was exposed and two to three holes were drilled for implantation of sterile miniature skull screws (⅛″, Small Parts, Inc.). […]
These experiments test the effects of the CRF system on voluntary ethanol consumption using a limited-access paradigm. […] Animal weights were measured daily in order to calculate the gram per kilogram intake. Ethanol preference (%) was calculated as the grams of ethanol consumed divided by the total fluid consumption (grams of ethanol+grams of water). The data was corrected for evaporation and spillage by subtracting the mean fluid loss measured in four drinking tubes placed on empty cages. […]
The effects of CRF (5 μg) and the CRF inhibitor CRF (6-33) (5 μg) on limited access (30 min) 10% ethanol drinking were measured using a limited-access two-bottle choice procedure.

[1] = tested on: NMDAR-mediated currents in VTA dopamine cells; test: CRF-related peptides on NMDAR-mediated currents at excitatory synapses onto VTA dopamine cells; type: cell-based; conditions: mammalian brain
NMDAR eEPSCs = conditions: cited from earlier work

Substance	10% ethanol consumption (10% ethanol consumption; limited access, compared to CRF alone)	water consumption (10% ethanol consumption)	potentiation of NMDAR currents [1]	potentiation of NMDARs (NMDAR eEPSCs; 10 nM CRF, mice)	NMDAR eEPSCs, concentration dependent (NMDAR eEPSCs; mice (FIG. 13))
CRF (6-33): indirect CRF receptor antagonist that acts by displacing CRF from CRF-BP (ISLDLTFHLLREVLEMARAEQLAQQAHS; Corticoliberin; UniProt P06850 159-186, looked up, fragment)	significantly reduced	no effect; also recorded: did not reduce	–	–	–
CRF: Corticotrophin-releasing factor, a 41 amino acid peptide; direct CRF receptor agonist (SEEPPISLDLTFHLLREVLEMARAEQLAQQAHSNRKLMEII; ends and bridges not checked; UniProt P06850 154-194, looked up)	–	–	increases	no potentiation	increased
Urocortin: may be the endogenous CRF-R2 ligand and also binds CRF-BP (DNPSLSIDLTFHLLRTLLELARTQSQRERAEQNRIIFDSV; ends and bridges not checked; UniProt P55089 83-122, looked up)	–	–	mimics CRF	–	–
ovine CRF: CRF form that does not bind CRF-BP (SQEPPISLDLTFHLLREVLEMTKADQLAQQAHSNRKLLDIA; ends and bridges not checked; UniProt P01142 148-188, looked up)	–	–	do not potentiate	–	–
